Like-named read-outs stand apart in the source and are kept apart here.
Columns and labels:
[1] = Solubility in 0.1 M phosphate buffer at pH 7; assay type: physicochemical; settings: 0.1 M phosphate buffer at pH 7, 10 mg/mL final peptide concentration, shaking 2 hours at room temperature, peptides as TFA-salts; measured sample pH 6.5-7.0
hGLP1R = target: T1, hGLP1R (Homo sapiens, UniProt P43220); assay: hGLP1R CreLuc assay in 0.5% and 100% plasma (HEK-293 CRE-luciferase reporter cells); assay type: cell-based; settings: HEK-293 reporter cells
T1 construct: expressed in transfected cells; host or cells: HEK-293 CRE-luciferase reporter cells
Description: CHO and HEK-293 recombinant cell lines express a luciferase reporter gene under control of the CAMP responsive element (CRE). As a second recombinant protein the GLP-1 and NPY2 receptors were expressed in the reporter gene HEK cells, and the GIP receptor was expressed in the reporter gene CHO cells, respectively. Stimulation of these recombinant cells with an agonist leads to an increase of intracellular CAMP levels. In the presence of CAMP, the transcription factor CRE binding protein (CREB) binds to the CRE and to the CREB binding protein (CBP), which leads to transcription of the luciferase reporter gene. Peptides upon serial-dilution in 100% DMSO were transferred into 384-well assay plates with 5 μl pre-dispensed assay buffer (1×HBSS, 20 mM HEPES, pH7.4 supplemented with 0.5% human plasma) using acoustic dispensing on a Labcyte ECHO. Cryo-preserved transgenic reporter gene cells were thawed in assay buffer. 20 μl (10.000 cells/well) were added to the plate with the peptides and incubated for 4 hours at 37° C. in a humidified incubator. Following incubation, assay plates are equilibrated to room temperature, followed by addition of 25 μl of Bright-Glo™ Luciferase reagent, incubation at room temperature for 10 minutes and analysis of luminescence (Envision Reader). […] EC50 values were calculated by non-linear regression using sigmoid concentration-response with variable slope.
The same assays were run in the presence of 100% plasma with no additional buffer constituents.

hGIPR = target: T2, hGIPR (Homo sapiens, UniProt P48546); assay: hGIPR CreLuc assay in 0.5% and 100% plasma (CHO CRE-luciferase reporter cells); assay type: cell-based
T2 construct: expressed in transfected cells; host or cells: CHO CRE-luciferase reporter cells
T2 sequence (P48546 22-466): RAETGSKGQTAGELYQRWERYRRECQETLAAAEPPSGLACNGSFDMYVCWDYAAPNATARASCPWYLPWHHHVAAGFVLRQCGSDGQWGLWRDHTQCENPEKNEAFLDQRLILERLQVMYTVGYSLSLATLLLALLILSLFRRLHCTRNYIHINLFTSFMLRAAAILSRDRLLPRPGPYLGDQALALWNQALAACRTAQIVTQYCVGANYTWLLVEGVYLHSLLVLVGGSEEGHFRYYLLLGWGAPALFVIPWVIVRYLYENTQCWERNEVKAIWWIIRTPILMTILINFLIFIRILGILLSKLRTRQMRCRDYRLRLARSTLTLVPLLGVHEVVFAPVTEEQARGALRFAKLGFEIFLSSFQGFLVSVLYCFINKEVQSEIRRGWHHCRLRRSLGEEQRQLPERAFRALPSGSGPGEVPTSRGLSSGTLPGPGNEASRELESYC

[2] = 0.5% human plasma, read-out: hGLP1R 0.5% hP
[3] = 0.5% human plasma, read-out: hGIPR 0.5% hP

T1 sequence (P43220 24-463): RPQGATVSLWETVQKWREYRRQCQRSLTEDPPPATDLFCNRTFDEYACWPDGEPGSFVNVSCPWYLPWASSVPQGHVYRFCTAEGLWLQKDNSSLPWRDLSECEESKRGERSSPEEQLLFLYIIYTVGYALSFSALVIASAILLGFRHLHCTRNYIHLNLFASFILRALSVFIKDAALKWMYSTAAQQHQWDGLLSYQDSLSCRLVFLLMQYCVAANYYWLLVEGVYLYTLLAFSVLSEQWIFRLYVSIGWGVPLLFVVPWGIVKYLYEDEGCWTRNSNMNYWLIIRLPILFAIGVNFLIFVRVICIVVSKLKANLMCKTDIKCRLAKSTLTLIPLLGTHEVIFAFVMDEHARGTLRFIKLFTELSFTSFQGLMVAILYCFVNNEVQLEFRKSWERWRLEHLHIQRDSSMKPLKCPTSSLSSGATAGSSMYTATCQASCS

solubility at 2 h [1] [µg/mL]	EC50 (hGLP1R; [2]) [nM]	EC50 (hGIPR; [3]) [nM]	Compound	also measured
	1.8	0.5	CC[C@H](C)[C@H](NC(=O)[C@H](CC(C)C)NC(=O)[C@H](Cc1c[nH]cn1)NC(=O)[C@H](CCCNC(=N)N)NC(=O)[C@@H](NC(=O)[C@H](Cc1ccccc1)NC(=O)[C@H](C)NC(=O)C(C)(C)NC(=O)[C@H](CCC(N)=O)NC(=O)[C@H](C)NC(=O)[C@H](CCC(N)=O)NC(=O)[C@H](CCCCN)NC(=O)[C@H](CCC(=O)O)NC(=O)[C@H](CC(C)C)NC(=O)C(C)(C)NC(=O)[C@@H](NC(=O)[C@H](CO)NC(=O)[C@H](Cc1ccc(O)cc1)NC(=O)[C@H](CC(=O)O)NC(=O)[C@H](CO)NC(=O)[C@@H](NC(=O)[C@H](Cc1ccccc1)NC(=O)[C@@H](NC(=O)CNC(=O)[C@H](CCC(=O)O)NC(=O)C(C)(C)NC(=O)[C@@H](N)Cc1ccc(O)cc1)[C@@H](C)O)[C@@H](C)O)[C@@H](C)CC)C(C)C)C(=O)N[C@@H](CC(N)=O)C(=O)N[C@@H](CCCCNC(=O)CC[C@H](NC(=O)CC[C@H](NC(=O)CC[C@H](NC(=O)CC[C@H](NC(=O)CC[C@H](NC(=O)CC[C@H](NC(=O)CCCCCCCCCCCCCCCCCCC(=O)O)C(=O)O)C(=O)O)C(=O)O)C(=O)O)C(=O)O)C(=O)O)C(=O)NC(C)(C)C(=O)N[C@H](C(=O)N[C@@H](CCCNC(=N)N)C(=O)N(C)[C@@H](CCC(N)=O)C(=O)N[C@@H](CCCNC(=N)N)C(=O)N[C@@H](Cc1ccc(O)cc1)C(N)=O)[C@@H](C)O [Compound 114, Y-Aib-E-G-T-F-T-S-D-Y-S-I-Aib-L-E-K-Q-A-Q-Aib-A-F-V-R-H-L-I-N-K(1,3)-Aib-T-R-NMeQ-R-Y-NH2.C20DA-gGlu-gGlu-gGlu-gGlu-gGlu-gGlu(1,2)]	
9600	3.4		CC[C@H](C)[C@H](NC(=O)[C@H](CC(C)C)NC(=O)[C@H](Cc1c[nH]cn1)NC(=O)[C@H](CCCNC(=N)N)NC(=O)[C@@H](NC(=O)[C@H](Cc1ccccc1)NC(=O)[C@H](C)NC(=O)C(C)(C)NC(=O)[C@H](CCC(N)=O)NC(=O)[C@H](C)NC(=O)[C@H](CCC(N)=O)NC(=O)[C@H](CCCCN)NC(=O)[C@H](CCC(=O)O)NC(=O)[C@H](CC(C)C)NC(=O)C(C)(C)NC(=O)[C@@H](NC(=O)[C@H](CO)NC(=O)[C@H](Cc1ccc(O)cc1)NC(=O)[C@H](CC(=O)O)NC(=O)[C@H](CO)NC(=O)[C@@H](NC(=O)[C@H](Cc1ccccc1)NC(=O)[C@H](CCC(=O)O)NC(=O)CNC(=O)[C@H](CCC(=O)O)NC(=O)C(C)(C)NC(=O)[C@@H](N)Cc1ccc(O)cc1)[C@@H](C)O)[C@@H](C)CC)C(C)C)C(=O)N[C@@H](CC(N)=O)C(=O)N[C@@H](CCCCNC(=O)[C@@H](N)CCCCNC(=O)CC[C@H](NC(=O)CC[C@H](NC(=O)CC[C@H](NC(=O)CC[C@H](NC(=O)CC[C@H](NC(=O)CC[C@H](NC(=O)CCCCCCCCCCCCCCCCC(=O)O)C(=O)O)C(=O)O)C(=O)O)C(=O)O)C(=O)O)C(=O)O)C(=O)NC(C)(C)C(=O)N[C@H](C(=O)N[C@@H](CCCNC(=N)N)C(=O)N[C@@H](CCC(N)=O)C(=O)N[C@@H](CCCNC(=N)N)C(=O)N[C@@H](Cc1ccc(O)cc1)C(N)=O)[C@@H](C)O [Compound 54, Y-Aib-E-G-E-F-T-S-D-Y-S-I-Aib-L-E-K-Q-A-Q-Aib-A-F-V-R-H-L-I-N-K(1,3)-Aib-T-R-Q-R-Y-NH2.C18DA-gGlu-gGlu-gGlu-gGlu-gGlu-gGlu-eLys(1,2)]	

More lines, now with the values behind:

Compound	solubility at 2 h [1] [µg/mL]	EC50 (hGLP1R; [2]) [nM]	EC50 (hGIPR; [3]) [nM]	also measured
CC[C@H](C)[C@H](NC(=O)[C@H](CO)NC(=O)[C@H](CC(C)C)NC(=O)[C@H](CC(=O)O)NC(=O)[C@H](CO)NC(=O)[C@@H](NC(=O)[C@H](Cc1ccccc1)NC(=O)[C@@H](NC(=O)CNC(=O)[C@H](CCC(=O)O)NC(=O)C(C)(C)NC(=O)[C@@H](N)Cc1ccc(O)cc1)[C@@H](C)O)[C@@H](C)O)C(=O)NC(C)(C)C(=O)N[C@@H](CC(C)C)C(=O)N[C@@H](CCC(=O)O)C(=O)N[C@@H](CCCCN)C(=O)N[C@@H](CCC(N)=O)C(=O)N[C@@H](C)C(=O)N[C@@H](CCC(N)=O)C(=O)NC(C)(C)C(=O)N[C@@H](C)C(=O)N[C@@H](Cc1ccccc1)C(=O)N[C@H](C(=O)N[C@@H](CCCNC(=N)N)C(=O)N[C@@H](Cc1c[nH]cn1)C(=O)N[C@@H](CC(C)C)C(=O)N[C@@H](CC(C)C)C(=O)N[C@@H](CC(N)=O)C(=O)N[C@@H](CCCCNC(=O)[C@@H](N)CCCCNC(=O)CC[C@H](NC(=O)CC[C@H](NC(=O)CC[C@H](NC(=O)CC[C@H](NC(=O)CC[C@H](NC(=O)CC[C@H](NC(=O)CCCCCCCCCCCCCCCCCCC(=O)O)C(=O)O)C(=O)O)C(=O)O)C(=O)O)C(=O)O)C(=O)O)C(=O)NC(C)(C)C(=O)N[C@H](C(=O)N[C@@H](CCCNC(=N)N)C(=O)N[C@@H](CCC(N)=O)C(=O)N[C@@H](CCCNC(=N)N)C(=O)N[C@@H](Cc1ccc(O)cc1)C(N)=O)[C@@H](C)O)C(C)C [Compound 115, Y-Aib-E-G-T-F-T-S-D-L-S-I-Aib-L-E-K-Q-A-Q-Aib-A-F-V-R-H-L-L-N-K(1,3)-Aib-T-R-Q-R-Y-NH2.C20DA-gGlu-gGlu-gGlu-gGlu-gGlu-gGlu-eLys(1,2)]	8200			EC50 (hGLP1R; hGLP1R 0.5% hP (nM), 0.5% human plasma): 7 nM
CC[C@H](C)[C@H](NC(=O)[C@H](CC(C)C)NC(=O)[C@H](Cc1c[nH]cn1)NC(=O)[C@H](CCCNC(=N)N)NC(=O)[C@@H](NC(=O)[C@H](Cc1ccccc1)NC(=O)[C@H](C)NC(=O)C(C)(C)NC(=O)[C@H](CCC(N)=O)NC(=O)[C@H](C)NC(=O)[C@H](CCC(N)=O)NC(=O)[C@H](CCCCN)NC(=O)[C@H](CCC(=O)O)NC(=O)[C@H](CC(C)C)NC(=O)C(C)(C)NC(=O)[C@@H](NC(=O)[C@H](CO)NC(=O)[C@H](Cc1ccc(O)cc1)NC(=O)[C@H](CC(=O)O)NC(=O)[C@H](CO)NC(=O)[C@@H](NC(=O)[C@H](Cc1ccccc1)NC(=O)[C@@H](NC(=O)CNC(=O)[C@H](CCC(=O)O)NC(=O)C(C)(C)NC(=O)[C@@H](N)Cc1ccc(O)cc1)[C@@H](C)O)[C@@H](C)O)[C@@H](C)CC)C(C)C)C(=O)N[C@@H](CC(N)=O)C(=O)N[C@@H](CCCCNC(=O)CC[C@H](NC(=O)CC[C@H](NC(=O)[C@@H](N)CCCCNC(=O)CC[C@H](NC(=O)CC[C@H](NC(=O)CC[C@H](NC(=O)CC[C@H](NC(=O)CCCCCCCCCCCCCCCCC(=O)O)C(=O)O)C(=O)O)C(=O)O)C(=O)O)C(=O)O)C(=O)O)C(=O)NC(C)(C)C(=O)N[C@H](C(=O)N[C@@H](CCCNC(=N)N)C(=O)N[C@@H](CCC(N)=O)C(=O)N[C@@H](CCCNC(=N)N)C(=O)N[C@@H](Cc1ccc(O)cc1)C(N)=O)[C@@H](C)O [Compound 34, Y-Aib-E-G-T-F-T-S-D-Y-S-I-Aib-L-E-K-Q-A-Q-Aib-A-F-V-R-H-L-I-N-K(1,3)-Aib-T-R-Q-R-Y-NH2.C18DA-gGlu-gGlu-gGlu-gGlu-eLys-gGlu-gGlu(1,2)]	10600	0.3	0.2	
CC[C@H](C)[C@H](NC(=O)[C@H](Cc1ccccc1)NC(=O)[C@H](C)NC(=O)C(C)(C)NC(=O)[C@H](CCC(N)=O)NC(=O)[C@H](C)NC(=O)[C@H](CCC(N)=O)NC(=O)[C@H](CCCCN)NC(=O)[C@H](CCC(=O)O)NC(=O)[C@H](CC(C)C)NC(=O)C(C)(C)NC(=O)[C@@H](NC(=O)[C@H](CO)NC(=O)[C@H](CC(C)C)NC(=O)[C@H](CC(=O)O)NC(=O)[C@H](CO)NC(=O)[C@@H](NC(=O)[C@H](Cc1ccccc1)NC(=O)[C@@H](NC(=O)CNC(=O)[C@H](CCC(=O)O)NC(=O)C(C)(C)NC(=O)[C@@H](N)Cc1ccc(O)cc1)[C@@H](C)O)[C@@H](C)O)[C@@H](C)CC)C(=O)N[C@@H](CCCNC(=N)N)C(=O)N[C@@H](Cc1c[nH]cn1)C(=O)N[C@@H](CC(C)C)C(=O)N[C@H](C(=O)N[C@@H](CC(N)=O)C(=O)N[C@@H](CCCCNC(=O)[C@@H](N)CCCCNC(=O)CC[C@H](NC(=O)CC[C@H](NC(=O)CC[C@H](NC(=O)CC[C@H](NC(=O)CC[C@H](NC(=O)CC[C@H](NC(=O)CCCCCCCCCCCCCCCCCCC(=O)O)C(=O)O)C(=O)O)C(=O)O)C(=O)O)C(=O)O)C(=O)O)C(=O)NC(C)(C)C(=O)N[C@H](C(=O)N[C@@H](CCCNC(=N)N)C(=O)N[C@@H](CCC(N)=O)C(=O)N[C@@H](CCCNC(=N)N)C(=O)N[C@@H](Cc1ccc(O)cc1)C(N)=O)[C@@H](C)O)[C@@H](C)CC [Compound 21, Y-Aib-E-G-T-F-T-S-D-L-S-I-Aib-L-E-K-Q-A-Q-Aib-A-F-I-R-H-L-I-N-K(1,3)-Aib-T-R-Q-R-Y-NH2.C20DA-gGlu-gGlu-gGlu-gGlu-gGlu-gGlu-eLys(1,2)]				EC50 (hGLP1R; hGLP1R 100% hP (nM), 100% human plasma): 13.9 nM; EC50 (hGIPR; hGIPR 0.5% hP (nM), 0.5% human plasma): 0.2 nM; EC50 (hGIPR; hGIPR 100% hP (nM), 100% human plasma): 5.6 nM
